According to article PMC11855827, “High-Throughput Screening of Five Compound Libraries for Anthelmintic Activity and Toxicity Leads to the Discovery of Two Flavonoid Compounds” (International Journal of Molecular Sciences, 2025):
Where a SMILES comes first, the peptide text is derived from it. The star is where a group is joined. βNA = c1ccc2cc(N*)ccc2c1

Test system: C. elegans
Details: Table S2, C. elegans SS assay, 110 μM, averages of 4 data points

Row | SMILES | Percentage of motility inhibition 0 h | Percentage of motility inhibition 24 h
1 | CO[C@@H]1[C@@H](OC(N)=O)[C@@H](O)[C@H](Oc2ccc3c([O-])c(NC(=O)c4ccc(O)c(CC=C(C)C)c4)c(=O)oc3c2C)OC1(C)C.[Na+] [Novobiocin (sodium)] | 6% | 6%
2 | Cn1cc(C(N)=O)ccc1=O [Nudifloramide] | 0% | 0%
3 | CC(=O)NCCc1c[nH]c2ccc(O)cc12 [N‐Acetyl‐5‐hydroxytryptamine] | 0% | 0%
4 | O=C(N[C@@H](c1ccccc1)[C@@H](O)C(=O)O)c1ccccc1 [N‐Benzoyl‐(2R,3S)‐3‐phenylisoserine] | 54% | 29%
5 | CCCCC/C=C\C/C=C\CCCCCCCC(=O)NCc1ccccc1 [N‐Benzyllinoleamide] | 0% | 0%
6 | CC/C=C\C/C=C\C/C=C\CCCCCCCC(=O)NCc1ccccc1 [N‐Benzyllinolenamide] | 2% | 0%
7 | CCCCCCCCCCCCCCCCCC(=O)NCc1ccccc1 [N‐Benzyloctadecanamide] | 35% | 17%
8 | CCCCCCCCCCCCCCCC(=O)NCc1ccccc1 [N‐Benzylpalmitamide] | 0% | 20%
9 | COc1ccc(CCNC(=O)/C=C/c2ccc(O)c(O)c2)cc1 [N‐Caffeoyl O‐methyltyramine] | 0% | 0%
10 | COc1cc[nH]c(=O)c1C#N [N‐Demethylricinine] | 0% | 7%
11 | COc1ccc2c3c1O[C@H]1C[C@@H](O)C=C[C@@]31CCNC2 [N‐Desmethyl Galanthamine] | 0% | 0%
12 | COc1cc(/C=C/C(=O)NCC(O)c2ccc(O)cc2)ccc1O (stereo not drawn) [N‐Feruloyloctopamine] | 14% | 0%
13 | COc1cc(/C=C/C(=O)NCCc2c[nH]c3ccc(O)cc23)ccc1O [N‐Feruloylserotonin] | 11% | 18%
14 | O=CN1C[C@@H]2C[C@H](C1)c1cccc(=O)n1C2 [N‐Formylcytisine] | 0% | 0%
15 | CN1C[C@@H]2C[C@H](C1)c1cccc(=O)n1C2 [N‐Methylcytisine] | 0% | 0%
16 | Cn1c(=O)c2c(c3ccccc31)OC(C)(C)C=C2 [N‐Methylflindersine] | 0% | 1%
17 | CN1CC(=O)NC1=O [N‐Methylhydantoin] | 13% | 16%
18 | COc1cc2c3c(c1OC)-c1ccccc1C[C@H]3[N+](C)(C)CC2 [N‐Methylnuciferine] | 0% | 0%
19 | COc1cc2c3c(c1OC)-c1ccccc1C[C@H]3NCC2 [N‐Nornuciferine] | 13% | 0%
20 | COc1cc(/C=C/C(=O)NCCc2ccc(O)cc2)ccc1O [N‐trans‐Feruloyltyramine] | 5% | 16%

Row | SMILES | Percentage of motility inhibition 0 h | Percentage of motility inhibition 24 h
21 | O=C(/C=C/c1ccc(O)c(O)c1)c1ccc(O)c(O)c1O [Okanin] | 9% | 31%
22 | CC1(C)CC[C@]2(C(=O)O[C@@H]3O[C@H](CO)[C@@H](O)[C@H](O)[C@H]3O)CC[C@]3(C)C(=CC[C@@H]4[C@@]5(C)CC[C@H](O)C(C)(C)[C@@H]5CC[C@]43C)[C@@H]2C1 [Oleanolic acid 28-O-β-D-glucopyranoside] | 33% | 34%
23 | COC(=O)C1=COC(O[C@@H]2O[C@H](CO)[C@@H](O)[C@H](O)[C@H]2O)/C(=C/C(=O)O)C1CC(=O)OCCc1ccc(O)c(O)c1 (stereo partly drawn) [Oleuropeinic acid] | 0% | 8%
24 | O=C([O-])c1cc(/N=N/c2ccc(O)c(C(=O)[O-])c2)ccc1O.[Na+].[Na+] [Olsalazine (Disodium)] | 6% | 12%
25 | COc1ccc(/C=C/C(=O)O[C@@H]2[C@H](O[C@@H]3O[C@@H](C)[C@H](O)[C@@H](O)[C@H]3O)[C@@H](O[C@@H]3O[C@@H](C)[C@H](O[C@@H]4OC[C@@H](O[C@@H]5O[C@H](CO)[C@H](O)[C@H](O)[C@H]5O)[C@H](O)[C@H]4O)[C@@H](O)[C@H]3O)[C@H](OC(=O)[C@]34CCC(C)(C)C[C@H]3C3=CC[C@@H]5[C@@]6(C)C[C@H](O)[C@H](O[C@@H]7O[C@H](CO)[C@@H](O)[C@H](O)[C@H]7O)[C@@](C)(C(=O)O)[C@@H]6CC[C@@]5(C)[C@]3(CO)CC4)O[C@@H]2C)cc1 [Onjisaponin B] | 30% | 33%
26 | COc1cc(/C=C/C(=O)O[C@@H]2[C@H](O[C@@H]3O[C@@H](C)[C@H](O)[C@@H](O)[C@H]3O)[C@@H](O[C@@H]3O[C@@H](C)[C@H](O[C@@H]4OC[C@@H](O)[C@H](O)[C@H]4O)[C@@H](O)[C@H]3O)[C@H](OC(=O)[C@]34CCC(C)(C)C[C@H]3C3=CC[C@@H]5[C@@]6(C)C[C@H](O)[C@H](O[C@@H]7O[C@H](CO)[C@@H](O)[C@H](O)[C@H]7O)[C@@](C)(C(=O)O)[C@@H]6CC[C@@]5(C)[C@]3(CO)CC4)O[C@@H]2C)cc(OC)c1OC [Onjisaponin Z] | 4% | 21%
27 | CN[C@H](CC(C)C)C(=O)N[C@H]1C(=O)N[C@@H](CC(N)=O)C(=O)N[C@H]2C(=O)N[C@H]3C(=O)N[C@H](C(=O)N[C@H](C(=O)O)c4cc(O)cc(O)c4-c4cc3ccc4O)[C@H](O[C@H]3C[C@](C)(N)[C@@H](O)[C@H](C)O3)c3ccc(c(Cl)c3)Oc3cc2cc(c3O[C@@H]2O[C@H](CO)[C@@H](O)[C@H](O)[C@H]2O[C@H]2C[C@](C)(NCc3ccc(-c4ccc(Cl)cc4)cc3)[C@@H](O)[C@H](C)O2)Oc2ccc(cc2Cl)[C@H]1O.O=P(O)(O)O.O=P(O)(O)O [Oritavancin (diphosphate)] | 34% | 8%
28 | Cc1ncc([N+](=O)[O-])n1CC(O)CCl (stereo not drawn) [Ornidazole (Levo‐)] | 27% | 23%
29 | O=c1cc(-c2ccccc2)oc2cc(O[C@@H]3O[C@H](CO)[C@@H](O)[C@H](O)[C@H]3O)c(O)c(O)c12 [Oroxin A] | 0% | 1%
30 | O=c1cc(-c2ccccc2)oc2cc(O[C@@H]3O[C@H](CO[C@@H]4O[C@H](CO)[C@@H](O)[C@H](O)[C@H]4O)[C@@H](O)[C@H](O)[C@H]3O)c(O)c(O)c12 [Oroxin B] | 0% | 0%
31 | COc1c(O[C@@H]2O[C@H](C(=O)O)[C@@H](O)[C@H](O)[C@H]2O)cc2oc(-c3ccccc3)cc(=O)c2c1O [Oroxylin A‐7‐O‐glucuronide] | 0% | 1%
32 | CCOC(=O)C1=C[C@@H](OC(CC)CC)[C@H](NC(C)=O)[C@@H](N)C1.O=P(O)(O)O [Oseltamivir ( phosphate)] | 0% | 0%
33 | CCC(CC)O[C@@H]1C=C(C(=O)O)C[C@H](N)[C@H]1NC(C)=O [Oseltamivir (acid)] | 18% | 8%
34 | C[C@@H]1O[C@@H](O[C@H]2C[C@@H](O)[C@]3(CO)[C@H]4[C@H](O)C[C@]5(C)[C@@H](C6=CC(=O)OC6)CC[C@]5(O)[C@@H]4CC[C@]3(O)C2)[C@H](O)[C@H](O)[C@H]1O.O.O.O.O.O.O.O.O [Ouabain (Octahydrate)] | 0% | 2%
35 | Cc1onc(-c2ccccc2)c1C(=O)N[C@@H]1C(=O)N2[C@@H]1SC(C)(C)[C@@H]2C(=O)[O-].O.[Na+] [Oxacillin (sodium monohydrate)] | 27% | 9%
36 | CN1CCCN=C1/C=C/c1cccc(O)c1.O=C(O)c1cc2ccccc2c(Cc2c(O)c(C(=O)O)cc3ccccc23)c1O [Oxantel (pamoate)] | 54% | 33%
37 | O=C1CCCC2C3CCC[N+]4([O-])CCCC(CN12)C34 (stereo not drawn) [Oxysophoridine] | 18% | 9%
38 | CN1CC[C@@]23C=C[C@H](O)C[C@@H]2Oc2c(O)ccc(c23)C1 [O‐Desmethyl Galantha mine] | 4% | 5%
39 | Cl.Cl.NC(N)=NCCC[C@H](NC(=O)[C@@H](N)Cc1ccccc1)C(=O)Nc1ccc2ccccc2c1 [PAβN (dihydrochloride)] (H-Phe-Arg-βNA) | 9% | 6%
